Measured values as given in US11987581B1 (KING FAISAL UNIVERSITY, priority 2023, dated 2024).

Biological target: T1, recombinant human CK2 (RRββ-holoenzyme) (Homo sapiens, UniProt P68400)
T1 construct: purchased Millipore
Assay: CK2 Kinase Assay (radiometric, [γ-33P] ATP)
Type: biochemical
Settings: final ATP concentration 15 μM; 10 min at 30° C.; eight concentrations; read-out: protein kinase CK2 activity IC50
Protocol: CK2 Kinase Assay was conducted using the protocol as described in Pierre F. et al; J. Med. Chem. 2011, 54, 635-654. The tested compounds in aqueous solution were added at a volume of 10 μL to a reaction mixture comprising 10 μL of assay dilution buffer (ADB; 20 mM MOPS, pH 7.2, 25 mM β-glycerol phosphate, 5 mM EGTA, 1 mM sodium orthovanadate, and 1 mM dithiothreitol), 10 μL of substrate peptide (RRRDDDSDDD, dissolved in ADB at a concentration of 1 mM), 10 μL of recombinant human CK2 (RRββ-holoenzyme, 25 ng dissolved in ADB; Millipore). Reactions were initiated by the addition of 10 μL of ATP solution (90% 75 mMMgCl2, 75 μM ATP (final ATP concentration: 15 μM) dissolved in ADB; 10% [γ-33P] ATP (stock 1 mCi/100 μL; 3000 Ci/mmol (Perkin-Elmer) and maintained for 10 min at 30° C. The reactions were quenched with 100 μL of 0.75% phosphoric acid and then transferred to and filtered through a phosphor cellulose filter plate (Millipore). After washing each well five times with 0.75% phosphoric acid, the plate was dried under vacuum for 5 min and, following the addition of 15 μL of scintillation fluid to each well, the residual radioactivity was measured using a Wallac luminescence counter. The IC50 values were derived from eight concentrations of test inhibitors.

T1 sequence (P68400 whole entry): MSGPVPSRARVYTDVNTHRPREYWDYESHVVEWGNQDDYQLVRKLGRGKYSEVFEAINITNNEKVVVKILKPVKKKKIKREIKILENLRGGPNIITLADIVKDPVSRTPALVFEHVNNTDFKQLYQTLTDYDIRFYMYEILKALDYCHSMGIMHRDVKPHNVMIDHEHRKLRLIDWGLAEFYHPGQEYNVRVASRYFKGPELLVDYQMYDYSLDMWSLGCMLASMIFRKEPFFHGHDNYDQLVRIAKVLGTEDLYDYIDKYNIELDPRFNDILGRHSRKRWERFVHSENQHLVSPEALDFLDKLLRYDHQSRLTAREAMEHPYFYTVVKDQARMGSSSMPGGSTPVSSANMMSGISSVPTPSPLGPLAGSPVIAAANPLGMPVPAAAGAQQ
T1 sequence (P67870 whole entry partner): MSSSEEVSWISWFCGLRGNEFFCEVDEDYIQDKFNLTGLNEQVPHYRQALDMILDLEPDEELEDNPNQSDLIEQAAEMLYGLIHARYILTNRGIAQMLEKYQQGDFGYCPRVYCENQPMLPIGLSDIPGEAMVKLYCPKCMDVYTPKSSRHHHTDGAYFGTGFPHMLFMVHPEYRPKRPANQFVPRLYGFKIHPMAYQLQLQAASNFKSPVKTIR

In the case of O=C(O)c1cn2c(Nc3cccc(Cl)c3)nc3ccncc3c2n1 [Compound 1], the IC50 is reported as 0.041 µM.
